Laboratory results published in paper PMC8881610 (Nature Communications, 2022).
Values joined by “and” are separate entries in the source; they are usually repeats but may differ in a detail not shown here. Equal values may be shown once. Read-outs that look alike come from different tables or passages of the source. Where a SMILES comes first, the peptide text is derived from it. [ ]: non-standard residue; d: D form. Aib = CC(C)(N)C(=O)O

Columns and labels:
GLP-1R = GLP-1R (Homo sapiens, UniProt P43220); assay: β-arrestin 2 recruitment (BRET); type: cell-based; parameters: expressed in transfected cells; host or cells: HEK293T; details: GLP-1R WT, HEK293T; for Emax: HEK-293T
Sequence of GLP-1R (P43220 24-463): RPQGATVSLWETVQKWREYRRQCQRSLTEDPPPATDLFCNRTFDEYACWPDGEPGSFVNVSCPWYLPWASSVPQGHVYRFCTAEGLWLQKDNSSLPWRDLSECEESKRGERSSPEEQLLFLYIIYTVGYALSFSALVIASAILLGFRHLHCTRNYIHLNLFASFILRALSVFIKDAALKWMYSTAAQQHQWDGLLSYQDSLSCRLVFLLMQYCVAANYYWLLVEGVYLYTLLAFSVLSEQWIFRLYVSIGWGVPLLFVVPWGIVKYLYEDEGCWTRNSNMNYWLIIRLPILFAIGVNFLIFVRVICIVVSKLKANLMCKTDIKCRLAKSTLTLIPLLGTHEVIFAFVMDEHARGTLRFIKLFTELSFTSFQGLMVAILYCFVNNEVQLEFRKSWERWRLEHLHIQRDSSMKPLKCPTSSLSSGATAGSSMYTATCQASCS
Method: HEK293T cells (3.2 × 10^6 cells/10 cm plate) were grown for 24 h before transiently transfection with 15 μg plasmid containing GIPR, GLP-1R or GCGR tagged with Rluc8 and β-arrestin 2 with a Venus-tag at the N terminus at a ratio of 1:9 by Lipofectamine 3000 transfection reagent. After cells were grown for 24 h, transiently transfected cells were then seeded onto poly-D-lysine coated 96-well culture plates (50,000 cells/well) in DMEM with 10% FBS. Cells were grown for 20 h before incubation in assay buffer (HBSS supplemented with 10 mM HEPES, 0.1% BSA or 0.1% casein, pH 7.4) for 30 min at 37 °C. Coelentrazine-h (Yeasen Biotech) was added to a final concentration of 5 μM for 5 min before bioluminescence resonance energy transfer (BRET) readings were made using an EnVision plate reader (PerkinElmer). BRET baseline measurements were collected for 15 cycles prior to ligand addition. After which, BRET was measured for 55 cycles.

GIPR [1] = molecular target: T1, GIPR (Homo sapiens, UniProt P48546); assay: Whole-cell binding assay, competition with 125I-GIP1-42; parameters: acylated tirzepatide to the full-length or modified; Flag; expressed in transfected cells
T1 sequence (P48546 22-466): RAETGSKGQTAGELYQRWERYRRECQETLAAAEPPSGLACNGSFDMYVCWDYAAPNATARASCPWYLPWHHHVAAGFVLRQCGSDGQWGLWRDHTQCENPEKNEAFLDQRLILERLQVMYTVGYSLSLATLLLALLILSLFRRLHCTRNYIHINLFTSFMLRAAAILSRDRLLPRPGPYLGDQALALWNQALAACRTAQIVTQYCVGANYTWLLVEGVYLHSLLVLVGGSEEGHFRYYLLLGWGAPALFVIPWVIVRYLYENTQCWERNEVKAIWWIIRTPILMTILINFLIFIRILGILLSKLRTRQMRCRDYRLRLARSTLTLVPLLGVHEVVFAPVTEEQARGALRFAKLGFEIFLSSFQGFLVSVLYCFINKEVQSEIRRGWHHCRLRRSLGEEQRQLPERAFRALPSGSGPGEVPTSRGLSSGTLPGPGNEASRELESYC
Method: (§1) Human embryonic kidney 293 cells containing SV40 large T-antigen (HEK293T) were cultured in DMEM (Gibco) supplemented with 10% (v/v) fetal bovine serum (FBS, Gibco), 1 mM sodium pyruvate (Gibco) and 100 units/mL penicillin and 100 μg/mL streptomycin at 37 °C in 5% CO2. Chinese hamster ovary (CHO-K1) cells were cultured in F-12 (Gibco) containing 10% FBS, 100 units/mL penicillin and 100 μg/mL streptomycin at 37 °C in 5% CO2. For cAMP and receptor expression assays, HEK293T cells were seeded into 6-well cell culture plates at a density of 7 × 10^5 cells per well. After overnight incubation, cells were transfected with GIPR, GLP-1R or GCGR construct using Lipofectamine 2000 or Lipofectamine 3000 transfection reagent (Invitrogen). For whole-cell binding assay, CHO-K1 cells were seeded into 96-well fibronectin-treated cell culture plates at a density of 3 × 10^4 cells per well. After overnight incubation, cells were transfected with GIPR, GLP-1R or GCGR construct using Lipofectamine 2000 transfection reagent (Invitrogen). Following 24 h culturing, the transfected cells were ready for use.
For GIPR, CHO-K1 cells were cultured in F-12 medium with 10% FBS and seeded at a density of 30,000 cells/well in Isoplate-96 plates (PerkinElmer). The WT or mutant GIPR was transiently transfected using Lipofectamine 2000 transfection reagent as previous described. They were then washed twice using F-12 with 0.1% BSA or 0.1% casein, 33 mM HEPES, and incubated for 2 h at 37 °C. […] Following incubation, cells were washed three times with ice-cold PBS and lysed by addition of 50 μL lysis buffer (PBS supplemented with 20 mM Tris-HCl, 1% Triton X-100, pH 7.4). Fifty µL of scintillation cocktail (OptiPhase SuperMix, PerkinElmer) were added and the plates were subsequently counted for radioactivity (counts per minute, CPM) in a MicroBeta^2 microplate counter (PerkinElmer).

GIPR [2] = molecular target: T1, GIPR; assay: cAMP accumulation assay (LANCE Ultra cAMP kit), GIPR WT, mutant or modified constructs; type: cell-based; parameters: acylated tirzepatide to the full-length or modified; Flag; expressed in transfected cells; host or cells: HEK293T; details: for EC50 / Emax: HEK293T; for Emax: HEK-293T, read-out: cAMP accumulation Emax
Method: as §1
A BRIL fusion protein was added at the N-terminal of the ECD with a TEV protease site and 2GSA linker between them. C-terminal 45 amino acids (Q422-C466) of the receptor were truncated. LgBiT was added at the end of helix 8 with a 15-amino acid (15AA) polypeptide linker in between, followed by a TEV protease cleavage site and an OMBP-MBP tag. […] The construct and various mutants of human GIPR were cloned into pcDNA3.1 vector for cAMP accumulation and whole-cell binding assays.
For GIPR, GLP-1R and GCGR, multi-targeting agonist stimulated cAMP accumulation was measured by a LANCE Ultra cAMP kit (PerkinElmer). After 24 h culture, the transfected cells were seeded into 384-well microtiter plates at a density of 3,000 cells per well in HBSS supplemented with 5 mM HEPES, 0.1% (w/v) BSA or 0.1% (w/v) casein and 0.5 mM 3-isobutyl-1-methylxanthine. The cells were stimulated with different concentrations of peptide agonists for 40 min at RT. Eu-cAMP tracer and ULight^TM-anti-cAMP were then diluted by cAMP detection buffer and added to the plates separately to terminate the reaction. Plates were incubated at RT for 1 h and the fluorescence intensity measured at 620 nm and […] by an EnVision multilabel plate reader (PerkinElmer).

[3] = GIPR WT, 0.1% casein, CHO-K1, read-out: Binding pIC50 (converted)
[4] = GIPR, effect of tirzepatide acylation, CHO-K1, read-out: binding pIC50 (converted)

CC[C@H](C)[C@H](NC(=O)[C@H](CC(C)C)NC(=O)[C@H](Cc1c[nH]c2ccccc12)NC(=O)[C@H](CCC(N)=O)NC(=O)[C@@H](NC(=O)[C@H](Cc1ccccc1)NC(=O)[C@H](C)NC(=O)[C@H](CCCCN)NC(=O)[C@H](CCC(N)=O)NC(=O)[C@H](C)NC(=O)[C@@H](NC(=O)[C@H](CCCCN)NC(=O)[C@H](CC(=O)O)NC(=O)[C@H](CC(C)C)NC(=O)C(C)(C)NC(=O)[C@@H](NC(=O)[C@H](CO)NC(=O)[C@H](Cc1ccc(O)cc1)NC(=O)[C@H](CC(=O)O)NC(=O)[C@H](CO)NC(=O)[C@@H](NC(=O)[C@H](Cc1ccccc1)NC(=O)[C@@H](NC(=O)CNC(=O)[C@H](CCC(=O)O)NC(=O)C(C)(C)NC(=O)[C@@H](N)Cc1ccc(O)cc1)[C@@H](C)O)[C@@H](C)O)[C@@H](C)CC)[C@@H](C)CC)C(C)C)C(=O)N[C@@H](C)C(=O)NCC(=O)NCC(=O)N1CCC[C@H]1C(=O)N[C@@H](CO)C(=O)N[C@@H](CO)C(=O)NCC(=O)N[C@@H](C)C(=O)N1CCC[C@H]1C(=O)N1CCC[C@H]1C(=O)N1CCC[C@H]1C(=O)N[C@@H](CO)C(N)=O [Non-acylated tirzepatide]
EC50 (GLP-1R; 0.1% casein, read-out: β-arrestin 2 recruitment pEC50 (converted)): 27.5 nM
Emax (GLP-1R; 0.1% BSA): 36.6 ± 0.52%
Emax (GLP-1R; 0.1% casein): 40.77 ± 0.37%
binding Span (GIPR [1]; GIPR WT, 0.1% casein, CHO-K1): 88.80 ± 5.25
IC50 (GIPR [1]; [3]): 3.39 nM
binding Span (GIPR [1]; GIPR, effect of tirzepatide acylation, CHO-K1): 90.71 ± 3.70 % WT or Tirzepatide
IC50 (GIPR [1]; [4]): 12.6 nM
EC50 (GIPR [2]; GIPR WT, 0.1% BSA, read-out: cAMP accumulation pEC50 (converted)): 0.00182 nM

CC(C)C[C@H](NC(=O)[C@H](CC(C)C)NC(=O)[C@H](Cc1c[nH]c2ccccc12)NC(=O)[C@H](CCC(N)=O)NC(=O)[C@@H](NC(=O)[C@H](Cc1ccccc1)NC(=O)[C@H](CC(=O)O)NC(=O)[C@H](CCC(N)=O)NC(=O)[C@H](C)NC(=O)[C@H](C)NC(=O)[C@H](CCCNC(=N)N)NC(=O)[C@H](CCC(=O)O)NC(=O)[C@H](CC(=O)O)NC(=O)[C@H](CC(C)C)NC(=O)[C@H](Cc1ccc(O)cc1)NC(=O)[C@H](CCCCN)NC(=O)[C@H](CO)NC(=O)[C@H](CCCCN)NC(=O)[C@H](CC(=O)O)NC(=O)[C@H](CO)NC(=O)[C@@H](NC(=O)[C@H](Cc1ccccc1)NC(=O)[C@@H](NC(=O)CNC(=O)[C@H](CCC(N)=O)NC(=O)C(C)(C)NC(=O)[C@@H](N)Cc1c[nH]cn1)[C@@H](C)O)[C@@H](C)O)C(C)C)C(=O)N[C@@H](CC(=O)O)C(=O)NCC(=O)NCC(=O)N1CCC[C@H]1C(=O)N[C@@H](CO)C(=O)N[C@@H](CO)C(=O)NCC(=O)N[C@@H](C)C(=O)N1CCC[C@H]1C(=O)N1CCC[C@H]1C(=O)N1CCC[C@H]1C(=O)N[C@@H](CO)C(N)=O [Non-lipidated peptide 20] (H-H[Aib]QGTFTSDKSKYLDERAAQDFVQWLLDGGPSSGAPPPS-NH2; N-terminus and C-terminus assumed)
Emax (GLP-1R; 0.1% BSA): 65.4 ± 1.04%
Emax (GLP-1R; 0.1% casein): 64.3 ± 3.97%
IC50 (GIPR [1]; GIPR WT, 0.1% BSA, CHO-K1, read-out: Binding pIC50 (converted)): 51.3 nM
IC50 (GIPR [1]; [3]): 170 nM
reduction of cAMP accumulation vs peptide 20 (GIPR [2]; GIPR, 0.1% BSA): 1,288 fold
EC50 for cAMP accumulation relative to peptide 20 (GIPR [2]; GIPR, 0.1% casein): −871 fold
Emax (GIPR [2]; GIPR WT, 0.1% BSA): 99.4 ± 6.44%
Emax (GIPR [2]; GIPR WT, 0.1% casein): 88.5 ± 6.52%

CC[C@H](C)[C@H](NC(=O)[C@H](CC(C)C)NC(=O)[C@H](Cc1c[nH]c2ccccc12)NC(=O)[C@H](CCC(N)=O)NC(=O)[C@@H](NC(=O)[C@H](Cc1ccccc1)NC(=O)[C@H](C)NC(=O)[C@H](CCCCNC(=O)COCCOCCNC(=O)COCCOCCNC(=O)CC[C@H](NC(=O)CCCCCCCCCCCCCCCCCCC(=O)O)C(=O)O)NC(=O)[C@H](CCC(N)=O)NC(=O)[C@H](C)NC(=O)[C@@H](NC(=O)[C@H](CCCCN)NC(=O)[C@H](CC(=O)O)NC(=O)[C@H](CC(C)C)NC(=O)C(C)(C)NC(=O)[C@@H](NC(=O)[C@H](CO)NC(=O)[C@H](Cc1ccc(O)cc1)NC(=O)[C@H](CC(=O)O)NC(=O)[C@H](CO)NC(=O)[C@@H](NC(=O)[C@H](Cc1ccccc1)NC(=O)[C@@H](NC(=O)CNC(=O)[C@H](CCC(=O)O)NC(=O)C(C)(C)NC(=O)[C@@H](N)Cc1ccc(O)cc1)[C@@H](C)O)[C@@H](C)O)[C@@H](C)CC)[C@@H](C)CC)C(C)C)C(=O)N[C@@H](C)C(=O)NCC(=O)NCC(=O)N1CCC[C@H]1C(=O)N[C@@H](CO)C(=O)N[C@@H](CO)C(=O)NCC(=O)N[C@@H](C)C(=O)N1CCC[C@H]1C(=O)N1CCC[C@H]1C(=O)N1CCC[C@H]1C(=O)N[C@@H](CO)C(N)=O [Tirzepatide]
IC50 (GIPR [1]; Fig. 7c receptor binding profile, n = 3 in duplicate, SEM, read-out: GIPR (pIC50 ± S.E.M.) (converted)): 31.6 nM
binding Span (GIPR [1]; GIPR WT, 0.1% casein, CHO-K1): 92.95 ± 3.97
IC50 (GIPR [1]; [3]): 3.16 nM
binding Span (GIPR [1]; GIPR WT, CHO-K1): 102.92 ± 6.94 % WT
IC50 (GIPR [1]; GIPR WT, CHO-K1, read-out: binding pIC50 (converted)): 89.1 nM and 97.7 nM
IC50 (GIPR [1]; [4]): 105 nM
EC50 (GIPR [2]; GIPR WT, read-out: cAMP pEC50 (converted)): 0.0288 nM
EC50 (GIPR [2]; GIPR, n = 4, SEM, read-out: cAMP pEC50 ± S.E.M. (converted)): 0.0126 nM
